Experimental data reported in patent US12493040B2, “Cancer detection method using sense of smell of nematode” (HIROTSU BIO SCIENCE INC., priority 2013, dated 2025).

Tested on: RNAi-treated eri-1 (mg366) nematodes
Test: RNAi screening of olfactory receptor genes: chemotaxis assay of RNAi-treated nematodes to odorants
Type: in vivo, Caenorhabditis elegans
Settings: repellent or high concentration of attractant
Summary of the method: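 eri-1 (mg366) worms knocked down by feeding RNAi (Ahringer library) on IPTG/ampicillin NGM plates with E. coli for 4 days, then tested for chemotaxis, 30–50 worms per assay. Odorants at 1 μl of 10^−3 or 10^−4 dilution, or 1 and 5 μl undiluted. Hits scored by z score, thresholds ±1.96 (P<0.05) or ±0.96.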

chemotaxis index (Control nematodes): −0.91 ± 0.009
chemotaxis index (srh-4 RNAi-treated nematodes): −0.87
chemotaxis index (srh-7 RNAi-treated nematodes): −0.78
chemotaxis index (srh-8 RNAi-treated nematodes): −0.86
chemotaxis index (srh-10 RNAi-treated nematodes): −0.88
chemotaxis index (srh-11 RNAi-treated nematodes): −0.65
chemotaxis index (srh-15 RNAi-treated nematodes): −0.25
chemotaxis index (srh-16 RNAi-treated nematodes): −0.63
chemotaxis index (srh-18 RNAi-treated nematodes): −0.26
chemotaxis index (srh-19 RNAi-treated nematodes): −0.80
chemotaxis index (srh-22 RNAi-treated nematodes): −0.89
chemotaxis index (srh-23 RNAi-treated nematodes): −0.77
chemotaxis index (srh-24 RNAi-treated nematodes): −0.79
chemotaxis index (srh-25 RNAi-treated nematodes): −0.06
chemotaxis index (srh-27 RNAi-treated nematodes): −0.79
chemotaxis index (srh-28 RNAi-treated nematodes): −0.71
chemotaxis index (srh-36 RNAi-treated nematodes): −0.57
chemotaxis index (srh-37 RNAi-treated nematodes): −0.89
chemotaxis index (srh-39 RNAi-treated nematodes): −0.90
chemotaxis index (srh-40 RNAi-treated nematodes): −0.83
chemotaxis index (srh-41 RNAi-treated nematodes): −0.62
chemotaxis index (srh-44 RNAi-treated nematodes): −0.58
chemotaxis index (srh-45 RNAi-treated nematodes): −0.91
chemotaxis index (srh-46 RNAi-treated nematodes): −0.87
chemotaxis index (srh-48 RNAi-treated nematodes): −0.79
chemotaxis index (srh-49 RNAi-treated nematodes): −0.91
chemotaxis index (srh-50 RNAi-treated nematodes): −0.96
chemotaxis index (srh-51 RNAi-treated nematodes): −0.90
chemotaxis index (srh-52 RNAi-treated nematodes): −0.85
chemotaxis index (srh-55 RNAi-treated nematodes): −0.96
chemotaxis index (srh-59 RNAi-treated nematodes): −0.79
chemotaxis index (srh-60 RNAi-treated nematodes): −0.83
chemotaxis index (srh-61 RNAi-treated nematodes): −0.68
chemotaxis index (srh-67 RNAi-treated nematodes): −0.61
chemotaxis index (srh-68 RNAi-treated nematodes): −0.65
chemotaxis index (srh-69 RNAi-treated nematodes): −0.84
chemotaxis index (srh-70 RNAi-treated nematodes): −0.81
chemotaxis index (srh-71 RNAi-treated nematodes): −0.80
chemotaxis index (srh-72 RNAi-treated nematodes): −0.87
chemotaxis index (srh-74 RNAi-treated nematodes): −0.96
chemotaxis index (srh-75 RNAi-treated nematodes): −0.86
chemotaxis index (srh-77 RNAi-treated nematodes): −0.74
chemotaxis index (srh-79 RNAi-treated nematodes): −0.61
chemotaxis index (srh-80 RNAi-treated nematodes): −0.81
chemotaxis index (srh-82 RNAi-treated nematodes): −0.96
chemotaxis index (srh-83 RNAi-treated nematodes): −0.70
chemotaxis index (srh-97 RNAi-treated nematodes): −0.66
chemotaxis index (srh-99 RNAi-treated nematodes): −0.82
chemotaxis index (srh-100 RNAi-treated nematodes): −0.48
chemotaxis index (srh-104 RNAi-treated nematodes): −0.71
chemotaxis index (srh-105 RNAi-treated nematodes): −0.80
chemotaxis index (srh-109 RNAi-treated nematodes): −0.84
chemotaxis index (srh-111 RNAi-treated nematodes): −0.71
chemotaxis index (srh-113 RNAi-treated nematodes): −0.91
chemotaxis index (srh-115 RNAi-treated nematodes): −0.75
chemotaxis index (srh-116 RNAi-treated nematodes): −0.69
chemotaxis index (srh-118 RNAi-treated nematodes): −0.89
chemotaxis index (srh-119 RNAi-treated nematodes): −0.84
chemotaxis index (srh-120 RNAi-treated nematodes): −0.68
chemotaxis index (srh-122 RNAi-treated nematodes): −0.84
chemotaxis index (srh-123 RNAi-treated nematodes): −0.90
chemotaxis index (srh-125 RNAi-treated nematodes): −0.77
chemotaxis index (srh-128 RNAi-treated nematodes): −0.89
chemotaxis index (srh-129 RNAi-treated nematodes): −0.90
chemotaxis index (srh-130 RNAi-treated nematodes): −0.94
chemotaxis index (srh-131 RNAi-treated nematodes): −0.45
chemotaxis index (srh-132 RNAi-treated nematodes): −0.84
chemotaxis index (srh-139 RNAi-treated nematodes): −0.91
chemotaxis index (srh-140 RNAi-treated nematodes): −0.80
chemotaxis index (srh-141 RNAi-treated nematodes): −0.94
chemotaxis index (srh-142 RNAi-treated nematodes): −0.94
chemotaxis index (srh-145 RNAi-treated nematodes): −0.44
chemotaxis index (srh-148 RNAi-treated nematodes): −0.78
chemotaxis index (srh-154 RNAi-treated nematodes): −0.58
chemotaxis index (srh-159 RNAi-treated nematodes): −0.48
chemotaxis index (srh-165 RNAi-treated nematodes): −0.40
chemotaxis index (srh-166 RNAi-treated nematodes): −1.00
chemotaxis index (srh-167 RNAi-treated nematodes): −1.00
chemotaxis index (srh-169 RNAi-treated nematodes): −0.92
chemotaxis index (srh-174 RNAi-treated nematodes): −0.92
chemotaxis index (srh-179 RNAi-treated nematodes): −0.97
chemotaxis index (srh-182 RNAi-treated nematodes): −0.98
chemotaxis index (srh-186 RNAi-treated nematodes): −0.93
chemotaxis index (srh-190 RNAi-treated nematodes): −1.00
chemotaxis index (srh-193 RNAi-treated nematodes): −0.84
chemotaxis index (srh-195 RNAi-treated nematodes): −0.98
chemotaxis index (srh-201 RNAi-treated nematodes): −0.97
chemotaxis index (srh-203 RNAi-treated nematodes): −1.00
chemotaxis index (srh-204 RNAi-treated nematodes): −1.00
chemotaxis index (srh-206 RNAi-treated nematodes): −1.00
chemotaxis index (srh-207 RNAi-treated nematodes): −1.00
chemotaxis index (srh-208 RNAi-treated nematodes): −0.82
chemotaxis index (srh-209 RNAi-treated nematodes): −0.84
chemotaxis index (srh-210 RNAi-treated nematodes): −0.66
chemotaxis index (srh-214 RNAi-treated nematodes): −0.96
chemotaxis index (srh-216 RNAi-treated nematodes): −0.83
chemotaxis index (srh-217 RNAi-treated nematodes): −0.44
chemotaxis index (srh-220 RNAi-treated nematodes): −0.28
chemotaxis index (srh-222 RNAi-treated nematodes): −0.82
chemotaxis index (srh-223 RNAi-treated nematodes): −0.74
SMILES: CCCCCCCC(C)=O [nonanone]
